Laboratory results as given in PubChem BioAssay AID1419 (Emory University Molecular Libraries Screening Center, 2008).
Active and inactive are the calls of the source. How the calls were made is not given here.

Assay: blockers of an Epstein-Barr virus protein-peptide interaction – biochemical, fluorescence polarization, dose response (AID 1419)
Conditions: cell-free protein-peptide binding, 2 h; for fold change: measured here: P channel fold over control, at 54 µM

CCCCNc1ccc2c3c(cccc13)C(=O)N(CCCC)C2=O
IC50: < 0.42 µM | fold change: 98.3

CC[C@@H](CO)NC(=O)[C@@H]1C=C2c3cccc4c3c(cn4C)C[C@H]2N(C)C1
IC50: > 54 µM (inactive) | fold change: 1.44

CCN1CC=C2C(C#N)=C(N)C(C#N)(C#N)C(c3cc(Cl)ccc3Cl)C2C1 (stereo not given)
IC50: > 54 µM (inactive) | fold change: 4.31

O=C(O)/C=C/c1cn(-c2ccccc2)nc1-c1ccc(-c2ccc([N+](=O)[O-])cc2)o1
IC50: 5.25 µM | fold change: 2.34

C/C=C/C=C/[C@H]1Cc2cc(O)cc(O)c2O1
IC50: 13 µM | fold change: 2.04

COCCOC(=O)c1sc(=S)n(CCOC)c1N
IC50: 3.85 µM | fold change: 2.45

COc1cc2c(cc1NC(=O)CN1C(=O)NC3(CCc4ccccc43)C1=O)oc1ccccc12 (stereo not given)
IC50: > 54 µM (inactive) | fold change: 0.93

CCN(CC)S(=O)(=O)c1ccc(C(=O)OCCN2C(=O)c3cccc4c(N5CCOCC5)ccc(c34)C2=O)cc1
IC50: 1.53 µM | fold change: 111

CC(=O)c1ccc2noc(-c3ccc(F)cc3)c2c1
IC50: 3.34 µM | fold change: 4.39

NC(=O)c1c(NC(=O)Cn2nc(C(=O)O)c3ccccc3c2=O)sc2c1CCCC2
IC50: > 54 µM (inactive) | fold change: 1.01

COC(=O)c1cc2c(-c3ccccc3)cc3ccccn3c-2c1C(=O)OC
IC50: 27 µM | fold change: 1.65

Cc1ccc2cc(C=C(C#N)C#N)c(N3CCCCC3)nc2c1
IC50: 2.98 µM | fold change: 24

O=C1CSC(=S)N1/N=C/c1ccc(O)c(O)c1O
IC50: 2.61 µM | fold change: 1.04

N#C/C(=C\C=C\c1ccccc1)c1nc(-c2ccc3c(c2)OCO3)cs1
IC50: 1.49 µM | fold change: 14.2

COc1ccc(C(CC(=O)N2CCCC2)c2c(OC)cc(OC)c3c(-c4ccccc4)cc(=O)oc23)cc1 (stereo not given)
IC50: > 54 µM (inactive) | fold change: 0.95

CN(C)c1ccnc2sc(C(=O)c3ccc(Br)cc3)c(N)c12
IC50: > 54 µM (inactive) | fold change: 0.973

O=C(OCCN1C(=O)c2cccc3c(N4CCOCC4)ccc(c23)C1=O)c1ccc(Cl)cc1Cl
IC50: 1.81 µM | fold change: 84.3

O=C(O)c1ccc2c3c(ncnc13)-c1ccccc1C2=O
IC50: > 54 µM (inactive) | fold change: 1.83

O=c1[nH]n2c(=O)c3c([nH]c2c1N=Nc1cccc(Cl)c1)CCC3
IC50: > 54 µM (inactive) | fold change: 0.94

Cn1cc(/C=C2\SC(=S)N(NC(=O)c3ccccc3)C2=O)c2ccccc21
IC50: > 54 µM (inactive) | fold change: 5.3

O=[N+]([O-])c1ccc(N2N=C(c3ccco3)CC2c2ccccc2)cc1 (stereo not given)
IC50: 14.2 µM | fold change: 2.85

Cc1ccc(NC(=O)CN2C(=O)/C(=C3\SC(=S)N(C4CCS(=O)(=O)C4)C3=O)c3ccccc32)cc1 (stereo not given)
IC50: 20.4 µM | fold change: 0.67

Cc1ccc(S(=O)(=O)C(C#N)c2nc3ccccc3nc2N2CCCC2)cc1 (stereo not given)
IC50: > 54 µM (inactive) | fold change: 1.67

CC(C)C[C@H]1C(=O)N2CCCC2[C@]2(O)O[C@](NC(=O)[C@@H]3C=C4c5cccc6[nH]cc(c56)CC4N(C)C3)(C(C)C)C(=O)N12 (stereo not given in full)
IC50: 8.52 µM | fold change: 2.39

Cc1cc(=O)oc2cc(OCC(=O)N/N=C/c3cc([N+](=O)[O-])ccc3O)ccc12
IC50: 4.65 µM | fold change: 1

Cc1cccn2c(=O)c(/C=C3\SC(=S)N(CC(C)C)C3=O)c(NCCCOC(C)C)nc12
IC50: > 54 µM (inactive) | fold change: 1.37

CCCC(=O)NC(Oc1ccc(C(C)=O)cc1)C(Cl)(Cl)Cl (stereo not given)
IC50: > 54 µM (inactive) | fold change: 0.993

CCCc1cc(=O)n(-c2nc3ccccc3s2)[nH]1
IC50: > 54 µM (inactive) | fold change: 0.94

COc1ccc2ccccc2c1C(O)c1nccn1C (stereo not given)
IC50: 2.72 µM | fold change: 5.13

Cc1ccc(N=C2NC(=O)/C(=C/c3cn(C)c4ccccc34)S2)cc1C
IC50: 4.47 µM | fold change: 7.74

Cc1cc(C(F)(F)F)n2nc(-c3sccc3-n3cccc3)cc2n1
IC50: > 54 µM (inactive) | fold change: 0.957

Cn1c(=O)c(Nc2ccc(O)cc2)c2c3c(cccc31)C(=O)c1ccccc1-2
IC50: < 0.42 µM | fold change: 3.86

O=C(N=Nc1ccc(NOC(=O)c2ccccc2Br)cc1)c1ccccc1O
IC50: > 54 µM (inactive) | fold change: 0.957

Cc1cc(N(CCCl)CCCl)ccc1/C=N/NC(=O)c1ccco1
IC50: > 54 µM (inactive) | fold change: 1.06

N#Cc1c2nc3ccccc3nc2n2cc(NC(=O)c3ccc(F)cc3)ccc12
IC50: 4.15 µM | fold change: 0.583

COc1cc(C2C(C#N)=C(N)OC3=C2C(=O)CC(C)(C)C3)c([N+](=O)[O-])cc1OC (stereo not given)
IC50: 6.61 µM | fold change: 1.98

CCCNC(=O)COC(=O)c1[nH]c(C)c(C(=O)OCC)c1C
IC50: > 54 µM (inactive) | fold change: 0.937

O=C(NC1CC1)c1cc(-c2ccco2)nc2ccccc12
IC50: 3.96 µM | fold change: 1.06

O=c1[nH]c(=S)n(-c2ccc(Br)cc2)c(O)c1C=Nc1ccc(N2CCOCC2)cc1
IC50: 3.54 µM | fold change: 5.78

O=S(=O)(Nc1cc2nc3ccccc3nc2n1Cc1ccccc1)c1ccc(Cl)cc1
IC50: 2.89 µM | fold change: 13
